Laboratory results from patent publication US20220064170A1, “BICYCLIC HETEROCYCLIC DERIVATIVES AND THEIR USE AS PHARMACEUTICALS” (Prelude Therapeutics, Incorporated, priority 2018, published 2022).

Biological target: T1, MCL-1 (Homo sapiens, UniProt Q07820)
T1 construct: purchased BPS Bioscience
Experiment: Cell Free Mcl-1:Bim affinity assay (Mcl-1 Bim), fluorescence polarization competition
Format: binding
Conditions: 15 nM MCL-1, 5 nM FITC-Bim peptide tracer, 1 hour at room temperature; Ki calculated from IC50 by Nikolovska-Coleska's equation; read-out: BIM_Ki
Method: The binding affinity of each compounds was measured via fluorescence polarization competition assay, in which the compound competes the same binding site with the ligand, and thus lead to dose-dependent anisotropy reduction. The tracer ligand utilized was a fluorescein isothiocyanate labelled peptide (FITC-[…]) derived from Bim (GenScript).
The assay was carried out in black half-area 96-well NBS plate (Corning), containing 15 nM of MCL-1 (BPS Bioscience), 5 nM of FITC-Bim and 3-fold series diluted test compounds in a total volume of 50 uL of assay buffer (20 mM HEPES, 50 mM NaCl, 0.002% Tween 20 1 mM TCEP and 1% DMSO). The reaction plate was incubated for 1 hour at room temperature. The change of anisotropy is measured by Envision multimode plate reader (PerkinElmer) at emission wavelength 535 nm. Fluorescence polarization was calculated in mP unit and the percentage inhibition was calc. by % inhibition=100×(mPDMSO−mP)/(mPDMSO−mPPC), in which mPDMSO is the DMSO control, and mPPC is the positive control. IC50 values were determined from a 10-point dose response curve by fitting the percent inhibition against compound concentration using the GraphPad Prism software. The inhibition constant Ki was subsequently calculated according Nikolovska-Coleska's equation (Anal. Biochem., 2004, 332, 261),
Where [I]50 is the concentration of the free inhibitor at 50% inhibition, [L]50 is the concentration of the free labeled ligand at 50% inhibition, [P]0 is the concentration of the free protein at 0% inhibition, and Kd is the dissociation constant of the protein-ligand complex.

T1 sequence (Q07820 whole entry): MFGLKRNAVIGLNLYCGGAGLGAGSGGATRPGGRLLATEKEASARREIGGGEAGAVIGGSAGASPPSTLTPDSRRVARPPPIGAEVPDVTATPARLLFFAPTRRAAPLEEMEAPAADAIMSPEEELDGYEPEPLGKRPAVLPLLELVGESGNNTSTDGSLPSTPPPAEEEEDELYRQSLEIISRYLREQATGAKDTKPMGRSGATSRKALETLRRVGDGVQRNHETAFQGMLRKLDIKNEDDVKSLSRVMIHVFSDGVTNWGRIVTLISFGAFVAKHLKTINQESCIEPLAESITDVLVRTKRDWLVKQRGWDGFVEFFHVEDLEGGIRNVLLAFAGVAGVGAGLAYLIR

Compound | Ki
Cc1c(-c2c(-c3ccc(F)cc3)cn3ncnc(O[C@H](Cc4ccccc4OCC4CC4)C(=O)O)c23)ccc(OCCN2CCN(C)CC2)c1Cl (atropisomer, axis not shown; (Sa)) [Example 1, (2R)-2-[(5Sa)-5-[3-Chloro-2-methyl-4-[2-(4-methylpiperazin-1-yl)ethoxy]phenyl]-6-(4-fluoro-phenyl)pyrrolo[2,1-f][1,2,4]triazin-4-yl]oxy-3-[2-(cyclopropylmethoxy)phenyl]propanoic acid] | 205 nM
Cc1c(-c2c(-c3ccc(F)cc3)cn3ncnc(N[C@@H](Cc4ccccc4OCC4CC4)C(=O)O)c23)ccc(OCCN2CCN(C)CC2)c1Cl (atropisomer, axis not shown; (Sa)) [Example 8, (2S)-2-{[(5Sa)-5-[3-Chloro-2-methyl-4-[2-(4-methylpiperazin-1-yl)ethoxy]phenyl]-6-(4-fluorophenyl)pyrrolo[2,1-f][1,2,4]triazin-4-yl]amino}-3-[2-(cyclopropylmethoxy)phenyl]-propanoic acid] | > 12000 nM
Cc1c(-c2c(-c3ccc(F)cc3)cn3ncnc(N[C@H](Cc4ccccc4OCC4CC4)C(=O)O)c23)ccc(OCCN2CCN(C)CC2)c1Cl (single isomer, unassigned) [Example 5] | > 12000 nM
(2S)-2-{[(5Ra)-5-[3-Chloro-2-methyl-4-[2-(4-methylpiperazin-1-yl)ethoxy]phenyl]-6-(4-fluorophenyl)pyrrolo[2,1-f][1,2,4]triazin-4-yl]amino}-3-[2-(cyclopropylmethoxy)phenyl]propanoic acid [Example 6] | > 12000 nM
Cc1c(-c2c(-c3ccc(F)cc3)cn3ncnc(O[C@H](Cc4ccccc4OCC4CC4)C(=O)O)c23)ccc(OCCN2CCN(C)CC2)c1Cl (atropisomer, axis not shown; (Ra)) [Example 4, (2R)-2-[(5Ra)-5-[3-Chloro-2-methyl-4-[2-(4-methylpiperazin-1-yl)ethoxy]phenyl]-6-(4-fluoro-phenyl)pyrrolo[2,1-f][1,2,4]triazin-4-yl]oxy-3-[2-(cyclopropylmethoxy)phenyl]propanoic acid] | 11.3 nM

Continued, values first:

Ki | Compound
990 nM | COc1ccccc1-c1nccc(COc2ccccc2C[C@H](Nc2ncnn3cc(-c4ccc(F)cc4)c(-c4ccc(OCCN5CCN(C)CC5)c(Cl)c4C)c23)C(=O)O)n1 (single isomer, unassigned) [Example 12]
382 nM | COc1ccccc1-c1nccc(COc2ccccc2C[C@H](Nc2ncnn3cc(-c4ccc(F)cc4)c(-c4ccc(OCCN5CCN(C)CC5)c(Cl)c4C)c23)C(=O)O)n1 (racemic) [Example 11]
> 12000 nM | Cc1c(-c2c(-c3ccc(F)cc3)cn3ncnc(O[C@@H](Cc4ccccc4OCC4CC4)C(=O)O)c23)ccc(OCCN2CCN(C)CC2)c1Cl (atropisomer, axis not shown; (Sa)) [Example 3, (2S)-2-[(5Sa)-5-[3-Chloro-2-methyl-4-[2-(4-methylpiperazin-1-yl)ethoxy]phenyl]-6-(4-fluoro-phenyl)pyrrolo[2,1-f][1,2,4]triazin-4-yl]oxy-3-[2-(cyclopropylmethoxy)phenyl]propanoic acid]
0.7 nM | COc1ccccc1-c1nccc(COc2ccccc2C[C@@H](Nc2ncnn3cc(-c4ccc(F)cc4)c(-c4ccc(OCCN5CCN(C)CC5)c(Cl)c4C)c23)C(=O)O)n1 (atropisomer, axis not shown; (Ra)) [Example 13, (2R)-2-{[(5Ra)-5-{3-Chloro-2-methyl-4-[2-(4-methylpiperazin-1-yl)ethoxy]phenyl}-6-(4-fluorophenyl)pyrrolo[2,1-f][1,2,4]triazin-4-yl]amino}-3-(2-{[2-(2-methoxyphenyl)pyrimidin-4-yl]methoxy}phenyl)propanoic acid]
77.7 nM | Cc1c(-c2c(-c3ccc(F)cc3)cn3ncnc(N[C@H](Cc4ccccc4OCC4CC4)C(=O)O)c23)ccc(OCCN2CCN(C)CC2)c1Cl (single isomer, unassigned) [Example 7]
> 12000 nM | Cc1c(-c2c(-c3ccc(F)cc3)cn3ncnc(O[C@@H](Cc4ccccc4OCC4CC4)C(=O)O)c23)ccc(OCCN2CCN(C)CC2)c1Cl (atropisomer, axis not shown) [Example 2, (2S)-2-[(5R^a)-5-[3-Chloro-2-methyl-4-[2-(4-methylpiperazin-1-yl)ethoxyl]phenyl]-6-(4-fluoro-phenyl)pyrrolo[2,1-f][1,2,4]triazin-4-yl]oxy-3-[2-(cyclopropylmethoxy)phenyl]propanoic acid]
